How the values were obtained:
[1] = system: Erb; assay: Gene expression analysis of endometrial implants (TaqMan), Erb; type: in vivo, rat; conditions: for Expression level Erb: endometrial implants, corrected by GAPDH, n 6, E2 control 2.37 ± 1.07
Procedure: (§1) Total RNA was extracted […] the rat-derived endometrial graft (27 specimens), then quality of the RNA was inspected with a spectrophotometer and bio-analyzer, and then reverse transcription reaction of the RNA was performed, followed by gene expression analysis was performed according to TaqMan method.
(§2) RNA was extracted from the rat uterine horn strips and grafted uterine strip using the RNeasy Fibrous Tissue Mini Kit.
(§3) Concentration of the extracted RNA was measured with a NanaoDrop. Also RIN measurements using a bioanalyzer (6000 nano kits) was carried out. A 6000 pico-kit was used for bioanalyzing of the two samples with low yield (Sample ID: 202, 507).
(§4) cDNA obtained by reverse transcription reaction from 1000 ng/uL of commercially available Rat Tissue Universal Reference Total RNA (Catalog Number PR-UR-100, ZYAGEN Inc.) using SuperScript VILO Master Mix (hereinafter “Standard”) was used as a standard substance.
(§5) Based on the concentration measured with a spectrophotometer, reverse transcription reaction of the specimen with Super Script VILO Master Mix was performed to give 50 ng/uL of cDNA (the following example). As for the samples with low yield, that is Sample ID: 202, 502, 507, the reverse transcription reaction was performed to give 25 ng/uL, 25 ng/uL, and 12.5 ng/uL of cDNA, respectively.
(§6) TaqMan reaction by using Step One Plus Real-Time PCR System was performed with standard 250, 62.5, 15.625, 3.9, 0.98 ng/well or sample 5.0 ng/well. A cycle of reaction, two minutes at 50° C. and 10 minutes at 95° C., followed by 15 seconds at 95° C. and one minute at 60° C., was repeated 40 cycles, then the fluorescence value FAM was measured in real time after the reaction at 60° C. In addition to the target eight genes, GAPDH gene as an internal control gene was measured. All the standards and samples were measured in triplicate.
(§7) From each of the two calibration curves (target gene, GAPDH gene) obtained from the standard, gene expressions level of the target gene and GAPDH gene of the sample was calculated, respectively. Then, the target gene expression level was corrected by the GAPDH gene expression level, the internal control gene. And then, an average gene expression level of the samples in each group was calculated, followed by the average gene expression level of the two groups was used as a standard to compare with each of the other groups.

[2] = system: VEGF; assay: Gene expression analysis of endometrial implants (TaqMan), VEGF; type: in vivo, rat; conditions: for Expression level VEGF: endometrial implants, corrected by GAPDH, n 6, E2 control 1.62 ± 0.43
Procedure: as §1, §2, §3, §4, §5, §6, §7

[3] = system: PEDF; assay: Gene expression analysis of endometrial implants (TaqMan), PEDF; type: in vivo, rat; conditions: for Expression level PEDF: endometrial implants, corrected by GAPDH, n 6, E2 control 4.51 ± 1.39
Procedure: as §1, §2, §3, §4
(§8) Based on the concentration measured with a spectrophotometer, reverse transcription reaction of the specimen with Super Script VILO Master Mix was performed to give 50 ng/uL of cDNA (the following example). […]
as §6
as §7, with “Then, the target gene expression level was corrected by the GAPDH gene expression level, the internal control gene.” left out

[4] = system: rat endometriosis model; assay: Wet weight of each organ (pituitary, adrenal glands, left uterine horn, femur) in the rat endometriosis model; type: in vivo; conditions: for Wet weight of pituitary: vehicle 0.0271 g; for Wet weight of adrenal gland (right): vehicle 0.0425 g; for Wet weight of adrenal gland (left): vehicle 0.0468 g; for Wet weight of adrenal glands (the sum of the left and right): vehicle 0.0893 g; for Wet weight of left uterine horn: vehicle 0.1428 g; for Wet weight of femur (left): vehicle 0.7589 g
Procedure: On the previous day of the model preparation (the grouping date), under inhalation anesthesia of 2% isoflurane, an incision was made in the abdomen of the rats. Subsequently, about 5 mL of blood was collected with a syringe from the abdominal vena cava and collected in a Venoject II vacuum blood collection tube (EDTA-2K), then cut the abdominal vena cava and abdominal aorta to euthanize by exsanguination. The right uterine horn was excised and cut out two strips (approximately 5 mm×5 mm), then cut out strips (approximately 5 mm×5 mm) from the graft sites, the right and left abdominal walls (muscle layer and peritoneum). After that, wet weight of each strip and abdominal wall was measured. Then pituitary, adrenal glands (both sides), left uterine horn, mammary gland (excised with the nipples, three on the lower abdomen, a sample for RNA measurement was approximately 3 mm in diameter) and femur (left side) were excised.
As for the pituitary, adrenal glands (both sides), left uterine horn and femur, wet weight was measured. The femur bone after wet weight measurement was discarded.
The administration was made orally, and the drug was forcibly administered into a stomach once a day using a flexible oral sonde and syringe for 28 consecutive days.
On the next day of the final administration, the abdominal dissection was made under inhalation anesthesia of 2% isoflurane, and the grafted uterine strips (two pieces) were excised, and photographed with a digital camera. Subsequently, about 5 mL of blood was collected with a syringe from the abdominal vena cava and collected in a Venoject II vacuum blood collection tube (EDTA-2K), then cut the abdominal vena cava and abdominal aorta to euthanize by exsanguination. Then pituitary, adrenal glands (both sides), graft uterine strips (two pieces), left uterine horn, mammary gland (excised with the nipples, three on the lower abdomen, a sample for RNA measurement was approximately 3 mm in diameter) and femur (left side) were excised.
As for the pituitary, adrenal glands (both sides), grafted uterine strip (one piece), left uterine horn and femur, wet weight was measured. The femur bone after wet weight measurement was discarded.

[5] = system: PR; assay: Gene expression analysis of endometrial implants (TaqMan), PR; type: in vivo, rat; conditions: for Expression level PR: endometrial implants, corrected by GAPDH, n 6, E2 control 101.0 ± 40.3
Procedure: as §1, §2, §3, §4, §5, §6, §7

[6] = system: IL-6; assay: Gene expression analysis of endometrial implants (TaqMan), IL-6; type: in vivo, rat; conditions: for Expression level IL-6: endometrial implants, corrected by GAPDH, n 6, E2 control 14.24 ± 8.74
Procedure: as §1, §2, §3, §4, §8, §6
as §7, with “Then, the target gene expression level was corrected by the GAPDH gene expression level, the internal control gene.” left out

[7] = system: Era; assay: Gene expression analysis of endometrial implants (TaqMan), Era; type: in vivo, rat; conditions: for Expression level Era: endometrial implants, corrected by GAPDH, n 6, E2 control 44.2 ± 18.9
Procedure: as §1, §2, §3, §4, §5, §6, §7

[8] = in comparison with the E2 control group

Effect on the estrogen receptor gene expression of Erb (in words) [1, 8]: not observed
Wet weight of pituitary ([4]; 0.1 mg/kg p.o. 28 days): 0.0226 g
Wet weight of adrenal gland (right) ([4]; 0.1 mg/kg p.o. 28 days): 0.0400 g
Wet weight of adrenal gland (left) ([4]; 0.1 mg/kg p.o. 28 days): 0.0438 g
Wet weight of adrenal glands (the sum of the left and right) ([4]; 0.1 mg/kg p.o. 28 days): 0.0838 g
Wet weight of left uterine horn ([4]; 0.1 mg/kg p.o. 28 days): 0.1261 g
Wet weight of femur (left) ([4]; 0.1 mg/kg p.o. 28 days): 0.7597 g
Weight trend in comparison with the vehicle control group after the Day 14 (in words) ([4]; 0.3 mg/kg and 0.1 mg/kg administered group): very mild weight suppression trend
Wet weight of pituitary ([4]; 0.3 mg/kg p.o. 28 days): 0.0187 g
Wet weight of adrenal gland (right) ([4]; 0.3 mg/kg p.o. 28 days): 0.0381 g
Wet weight of adrenal gland (left) ([4]; 0.3 mg/kg p.o. 28 days): 0.0398 g
Wet weight of adrenal glands (the sum of the left and right) ([4]; 0.3 mg/kg p.o. 28 days): 0.0779 g
Wet weight of left uterine horn ([4]; 0.3 mg/kg p.o. 28 days): 0.1119 g
Wet weight of femur (left) ([4]; 0.3 mg/kg p.o. 28 days): 0.7598 g
Wet weight of pituitary ([4]; 1.0 mg/kg p.o. 28 days): 0.0174 g
Wet weight of adrenal gland (right) ([4]; 1.0 mg/kg p.o. 28 days): 0.0357 g
Wet weight of adrenal gland (left) ([4]; 1.0 mg/kg p.o. 28 days): 0.0375 g
Wet weight of adrenal glands (the sum of the left and right) ([4]; 1.0 mg/kg p.o. 28 days): 0.0732 g
Wet weight of left uterine horn ([4]; 1.0 mg/kg p.o. 28 days): 0.1016 g
Wet weight of femur (left) ([4]; 1.0 mg/kg p.o. 28 days): 0.7301 g
Effect on the estrogen receptor gene expression of Era (in words) [7, 8]: not observed
SMILES: CCN(CC)Cc1ccc(OCC[C@H]2CC[C@H]3[C@@H]4[C@H](C)Cc5cc(O)ccc5[C@H]4CC[C@]23C)c(OC)c1 [SR16234, (7α)-21-[4-[(diethylamino)methyl]-2-methoxyphenoxy]-7-methyl-19-norpregna-1,3,5(10)-triene-3-ol]
Expression level Erb ([1]; 0.1 mg/kg): 4.05 ± 1.88 ng
Expression level Erb ([1]; 0.3 mg/kg): 3.05 ± 1.02 ng
Expression level Erb ([1]; 1 mg/kg): 2.08 ± 1.51 ng
Expression level VEGF ([2]; 0.1 mg/kg): 1.44 ± 0.43 ng
Expression level VEGF ([2]; 0.3 mg/kg): 1.65 ± 0.40 ng
Expression level VEGF ([2]; 1 mg/kg): 1.33 ± 0.57 ng
Effect on the gene expression of VEGF (in words) [2, 8]: No effect
Expression level PEDF ([3]; 0.1 mg/kg): 6.44 ± 1.56 ng
Expression level PEDF ([3]; 1 mg/kg): 5.93 ± 3.01 ng
Effect on the gene expression of PEDF (in words) ([3]; in comparison with the E2 control group, FIG. 2): increase trend
Wet weight of organs in comparison with the vehicle control group (in words) ([4]; SR16234 administered groups, 0.1, 0.3 and 1.0 mg/kg): decreasing trend associated with the dose increase
Expression level PR ([5]; 0.1 mg/kg): 94.6 ± 37.7 ng
Expression level PR ([5]; 0.3 mg/kg): 176.2 ± 81.1 ng
Expression level PR ([5]; 1 mg/kg): 127.8 ± 89.1 ng
Effect on gene expression of PR (in words) [5, 8]: slight increase trend
Expression level IL-6 ([6]; 0.1 mg/kg): 9.77 ± 9.78 ng
Expression level IL-6 ([6]; 1 mg/kg): 6.74 ± 4.96 ng
Effect on the gene expression of IL-6 (in words) ([6]; in comparison with the E2 control group, FIG. 3): dose-dependently inhibited
Expression level Era ([7]; 0.1 mg/kg): 39.3 ± 14.3 ng
Expression level Era ([7]; 0.3 mg/kg): 47.6 ± 14.9 ng
Expression level Era ([7]; 1 mg/kg): 33.2 ± 20.7 ng

Source: US10369159B2, “Estrogen receptor β partial agonist having estrogen receptor α inhibitory effect, and gynecological disease therapeutic agent using same” (NOBELPHARMA CO., LTD., priority 2015, dated 2019)
